Measured values as given in the supplement of paper PMC10307832.

Key:
Experiment in all cases: relative viability (nuclei count vs DMSO), 5 days (fraction); higher = more cells survive
Cediranib + Trametinib = compound: COc1cc2c(Oc3ccc4[nH]c(C)cc4c3F)ncnc2cc1OCCCN1CCCC1 [Cediranib] + CC(=O)Nc1cccc(-n2c(=O)n(C3CC3)c(=O)c3c(Nc4ccc(I)cc4F)n(C)c(=O)c(C)c32)c1 [Trametinib] (partner 0.02 µM)
In short: (§1)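 Dosing by pin tool came one day after lung cancer cell lines were seeded in 1536-well plates, using either one drug or a fixed anchor-drug dose plus five library-drug doses (not always all listed) in √10 steps. After 5 days, nuclei were counted on 4× images. Relative viability is treated-well nuclei count divided by vehicle-well nuclei count, and values are medians of duplicate plates.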

Decitabine + Palbociclib = compound: Nc1ncn([C@H]2C[C@H](O)[C@@H](CO)O2)c(=O)n1 [Decitabine] + CC(=O)c1c(C)c2cnc(Nc3ccc(N4CCNCC4)cn3)nc2n(C2CCCC2)c1=O [Palbociclib] (partner 0.5 µM)
In short: as §1

Decitabine + Linsitinib = compound: Nc1ncn([C@H]2C[C@H](O)[C@@H](CO)O2)c(=O)n1 [Decitabine] + C[C@]1(O)C[C@@H](c2nc(-c3ccc4ccc(-c5ccccc5)nc4c3)c3c(N)nccn32)C1 [Linsitinib] (partner 1 µM)
In short: as §1

[1] = compound: O=C(C[C@H]1NCCC[C@@H]1O)Cn1cnc2cc(Br)c(Cl)cc2c1=O (racemic) [Halofuginone] + CC(=O)c1c(C)c2cnc(Nc3ccc(N4CCNCC4)cn3)nc2n(C2CCCC2)c1=O [Palbociclib] (partner 0.5 µM)
In short: as §1

UMC-11 showed a relative viability (Cediranib + Trametinib; first compound 0.04 µM) of 0.684, a relative viability (Cediranib + Trametinib; first compound 0.1265 µM) of 0.234 and a relative viability (Cediranib + Trametinib; first compound 0.4 µM) of 0.586. It also gave a relative viability (Cediranib + Trametinib; first compound 1.265 µM) of 0.394, a relative viability (Cediranib + Trametinib; first compound 4 µM) of 0.721 and a relative viability (Decitabine + Palbociclib; first compound 0.04 µM) of 0.344. It also gave a relative viability (Decitabine + Palbociclib; first compound 0.1265 µM) of 0.276, a relative viability (Decitabine + Palbociclib; first compound 0.4 µM) of 0.313 and a relative viability (Decitabine + Palbociclib; first compound 1.265 µM) of 0.283. The relative viability (Decitabine + Palbociclib; first compound 4 µM) was 0.285, the relative viability (Decitabine + Linsitinib; first compound 0.04 µM) was 0.976 and the relative viability (Decitabine + Linsitinib; first compound 0.1265 µM) was 0.802. It also gave a relative viability (Decitabine + Linsitinib; first compound 0.4 µM) of 0.448, a relative viability (Decitabine + Linsitinib; first compound 1.265 µM) of 0.38 and a relative viability (Decitabine + Linsitinib; first compound 4 µM) of 0.335. For the same cell line, the relative viability ([1]; first compound 0.001 µM) was 0.359, the relative viability ([1]; first compound 0.003162 µM) was 0.306 and the relative viability ([1]; first compound 0.01 µM) was 0.322. The relative viability ([1]; first compound 0.03162 µM) was 0.316 and the relative viability ([1]; first compound 0.1 µM) was 0.279.
